# Literature values, collected in paper PMC11676834, “Composition of Triterpene Glycosides of the Far Eastern Sea Cucumber Cucumaria conicospermium Levin et Stepanov; Structure Elucidation of Five Minor Conicospermiumosides A3-1, A3-2, A3-3, A7-1, and A7-2; Cytotoxicity of the Glycosides Against Human Breast Cancer Cell Lines; Structure–Activity …” (Marine Drugs, 2024).
# System: human erythrocytes
# Parameters: method as in PMID 38132923
# Settings: studied earlier; ref [8]; cited from earlier work
compound,measurement,value
"CO[C@@H]1[C@@H](O)[C@H](O[C@@H]2[C@@H](O)[C@H](O[C@H]3[C@H](O)[C@@H](O[C@@H]4OC[C@@H](O)[C@H](O)[C@H]4O)[C@H](O[C@H]4[C@H](O[C@H]5CC[C@]6(C)C7CC[C@]8(C)[C@@H]([C@@](C)(O)C(=O)CC=C(C)C)CC[C@@]8(C)C7=CC[C@H]6C5(C)C)OC[C@@H](OS(=O)(=O)[O-])[C@@H]4O)O[C@@H]3C)O[C@H](COS(=O)(=O)[O-])[C@H]2O)O[C@H](COS(=O)(=O)[O-])[C@H]1O.[Na+].[Na+].[Na+] (stereo partly shown) [djakonovioside F1 (15), djakonovioside F1]",Hemolytic activity (in words),highly active
